Measurements from patent EP4722213A1, “NITROGEN-CONTAINING FUNCTIONAL GROUP-SUBSTITUTED PYRIDAZINOPYRIDONE DERIVATIVE AND USE THEREOF” (Sichuan Huiyu Pharmaceutical Co., Ltd., priority 2023, dated 2024).
Where a name gives a salt, the structure may show the parent alone.

Experiments:
[1] = biological target: T1, SOS1 (Homo sapiens, UniProt Q07889); test: biochemical
T1 sequence (Q07889 1-1333): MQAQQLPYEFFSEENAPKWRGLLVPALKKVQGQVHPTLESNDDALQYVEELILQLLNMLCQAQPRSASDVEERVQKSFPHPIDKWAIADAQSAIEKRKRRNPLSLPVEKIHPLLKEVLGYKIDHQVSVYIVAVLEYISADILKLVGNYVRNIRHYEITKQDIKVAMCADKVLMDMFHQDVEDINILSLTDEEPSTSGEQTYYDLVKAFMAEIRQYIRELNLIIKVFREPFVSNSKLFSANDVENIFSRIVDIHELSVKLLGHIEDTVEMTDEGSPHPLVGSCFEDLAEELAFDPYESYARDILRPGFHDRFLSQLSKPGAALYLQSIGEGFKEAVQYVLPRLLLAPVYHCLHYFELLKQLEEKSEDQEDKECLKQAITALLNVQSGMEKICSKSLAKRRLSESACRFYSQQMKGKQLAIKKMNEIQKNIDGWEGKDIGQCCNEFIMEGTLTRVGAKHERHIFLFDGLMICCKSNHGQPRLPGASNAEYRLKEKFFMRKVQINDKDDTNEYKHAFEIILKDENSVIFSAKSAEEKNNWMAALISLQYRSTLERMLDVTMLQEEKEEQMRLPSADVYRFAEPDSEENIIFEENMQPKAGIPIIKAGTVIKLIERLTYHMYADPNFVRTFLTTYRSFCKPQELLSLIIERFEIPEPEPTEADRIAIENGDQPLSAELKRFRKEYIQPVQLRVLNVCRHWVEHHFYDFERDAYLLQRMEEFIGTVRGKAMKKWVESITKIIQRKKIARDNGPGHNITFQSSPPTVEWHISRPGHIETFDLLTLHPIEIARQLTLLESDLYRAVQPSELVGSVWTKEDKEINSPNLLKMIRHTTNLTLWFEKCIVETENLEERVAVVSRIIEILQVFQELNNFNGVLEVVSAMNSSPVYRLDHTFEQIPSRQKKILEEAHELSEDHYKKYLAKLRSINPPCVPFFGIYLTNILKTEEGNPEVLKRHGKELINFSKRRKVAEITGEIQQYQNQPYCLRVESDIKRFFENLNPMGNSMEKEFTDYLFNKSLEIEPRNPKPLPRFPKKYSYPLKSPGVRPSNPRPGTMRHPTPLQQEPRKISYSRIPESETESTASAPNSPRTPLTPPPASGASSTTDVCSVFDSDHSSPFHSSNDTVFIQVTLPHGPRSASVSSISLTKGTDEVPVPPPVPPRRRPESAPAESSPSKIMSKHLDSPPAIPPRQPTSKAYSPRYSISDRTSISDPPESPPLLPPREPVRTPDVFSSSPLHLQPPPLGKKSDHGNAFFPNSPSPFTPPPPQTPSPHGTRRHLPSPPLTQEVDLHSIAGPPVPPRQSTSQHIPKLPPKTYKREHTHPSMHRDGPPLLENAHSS

[2] = tested on: NCI-H358 non-small cell lung cancer cells; test: Inhibition of NCI-H358 cell proliferation (CellTiter-Glo 3D, 7 days); format: cell-based; conditions: Homo sapiens, NCI-H358, 168 h, 3D microspheres, read-out: Inhibitory activity against NCI-H358 cell proliferation (IC50)
Experimental: The number of viable cells were detected by CellTiter-Glo 3D® reagent, thereby evaluating the inhibitory effect of compounds on cell proliferation. NCI-H358 non-small cell lung cancer cells (Nanjing cobioer) in the exponential growth phase were digested with trypsin-EDTA, and seeded into 96-well ultra-low attachment microplates at 100 µL per well with a density of 2000 cells/well. The cells were cultured overnight at 37°C with 5% CO2 to form microspheres. The test compounds were serially diluted 5-fold with DMSO to obtain 8 concentration gradient dilutions, then diluted with RPMI-1640 (10% FBS) cell culture medium respectively to obtain compound working solutions (2×). 100 µL per well was added to the cell supernatant, and the culture was continued for 7 days under the conditions of 37°C and 5% CO2. The well plate was removed, and 100 µL of CellTiter-Glo 3D® reagent was added. After lysis at room temperature for 10-30 minutes, 70 µL of the lysate was aspirated and transferred to a white opaque 384-well plate.
The inhibition rate was calculated by the following formula: [formula] Note: The negative control refers to the group without inhibitor, and the blank refers to the group without cells.
The inhibitory activities of some Example compounds and comparative compounds against NCI-H358 cell proliferation are shown in Table 2. Table 2. Inhibitory activity of some Example compounds against NCI-H358 cell proliferation

| Structure (SMILES) | IC50 [1] [nM] | IC50 [2] [nM] |
| --- | --- | --- |
| CCNc1nnc(N[C@H](C)c2cccc(C(F)F)c2F)c2cn(C3(C)CC3)c(=O)cc12 [Example 105, (R)-4-((1-(3-(difluoromethyl)-2-fluorophenyl)ethyl)amino)-1-(ethylamino)-6-(1-methylcyclopropyl) pyrido[3,4-d]pyridazin-7(6H)-one] | 4.7 | 58.1 |
| C[C@@H](Nc1nnc(N2CCN(C)C[C@@H]2C)c2cc(=O)n(C3(C)CC3)cc12)c1cccc(C(F)F)c1F [Example 195, 4-(((R)-1-(3-(difluoromethyl)-2-fluorophenyl)ethyl)amino)-1-((S)-2,4-dimethylpiperazin-1-yl)-6-(1-methylcyclopropyl) pyrido[3,4-d]pyridazin-7(6H)-one] | 3.7 | 25.6 |
| C[C@@H]1CN(c2nnc(N[C@H](C)c3cccc(C(F)(F)F)c3)c3cn(C4(C)CC4)c(=O)cc23)CCN1C [Example 176, 1-((R)-3,4-dimethylpiperazin-1-yl)-6-(1-methylcyclopropyl)-4-(((R)-1-(3-(trifluoromethyl)phenyl)ethyl)amino)pyr ido[3,4-d]pyridazin-7(6H)-one formate] | 6 | 32.3 |
| Cc1c([C@@H](C)Nc2nnc(N3CCN(C)CC3)c3cc(=O)n(C4(C)CC4)cc23)cccc1C(F)(F)F [Example 81, (R)-4-((1-(2-methyl-3-(trifluoromethyl)phenyl)ethyl)amino)-6-(1-methylcyclopropyl)-1-(4-methylpiperazin-1-yl)pyrido[3,4-d]pyridazin-7(6H)-one] | 6.3 | 65.3 |
| C[C@@H](Nc1nnc(N2CCN(C)CC2)c2cc(=O)n(N3CCN(C)CC3)cc12)c1cccc(C(F)F)c1F [Example 151, (R)-4-((1-(3-(difluoromethyl)-2-fluorophenyl)ethyl)amino)-1,6-bis(4-methylpiperazin-1-yl)pyrido[3,4-d]pyridazin-7(6H)-one] | 3.8 | 39.4 |
| CCN1CCN(c2nnc(N[C@H](C)c3cccc(C(F)(F)F)c3)c3cn(C4(C)CC4)c(=O)cc23)CC1 [Example 156, (R)-1-(4-ethylpiperazin-1-yl)-6-(1-methylcyclopropyl)-4-((1-(3-(trifluoromethyl)phenyl)ethyl)amino)pyr ido[3,4-d]pyridazin-7(6H)-one formate] | 5.4 | 47.4 |
| C[C@@H](Nc1nnc(N2CCN(C)CC2)c2cc(=O)n(C3(C)CC3)cc12)c1cccc(C(F)(F)F)c1F [Example 164, (R)-4-((1-(2-fluoro-3-(trifluoromethyl)phenyl)ethyl)amino)-6-(1-methylcyclopropyl)-1-(4-methylpiperazin-1-yl)pyrido[3,4-d]pyridazin-7(6H)-one] | 4.2 | 32.8 |
| C[C@@H](Nc1nnc(N2CCC2)c2cc(=O)n(C3(C)CC3)cc12)c1cccc(C(F)F)c1F [Example 16, (R)-1-(azetidin-1-yl)-4-((1-(3-(difluoromethyl)-2-fluorophenyl)ethyl)amino)-6-(1-methylcyclopropyl) pyrido[3,4-d]pyridazin-7(6H)-one formate] | 4.1 | 57.8 |
| Cc1c([C@@H](C)Nc2nnc(N3CCCC3)c3cc(=O)n(C4CC4)cc23)cccc1C(F)(F)F [Example 49, (R)-6-cyclopropyl-4-((1-(2-methyl-3-(trifluoromethyl)phenyl)ethyl)amino)-1-(pyrrolidin-1-yl) pyrido[3,4-d]pyridazin-7(6H)-one] | 6 | 55.1 |
| C[C@@H](Nc1nnc(N2CCN(C)CC2)c2cc(=O)n(C3(C)CC3)cc12)c1cccc(C(F)(F)F)c1 [Example 157, (R)-1-(4-methylpiperazin-1-yl)-6-(1-methylcyclopropyl)-4-((1-(3-(trifluoromethyl)phenyl)ethyl)amino)pyr ido[3,4-d]pyridazin-7(6H)-one formate] | 5.1 | 52.2 |
| CCN1CCN(c2nnc(N[C@H](C)c3cccc(C(F)(F)CO)c3)c3cn(C4(C)CC4)c(=O)cc23)CC1 [Example 227, (R)-4-((1-(3-(1,1-difluoro-2-hydroxyethyl)phenyl)ethyl)amino)-1-(4-ethylpiperazin-1-yl)-6-(1-methylcyclopropyl) pyrido[3,4-d]pyridazin-7(6H)-one] | 3.8 | 48.2 |
| C[C@@H](Nc1nnc(NC2CCOC2)c2cc(=O)n(C3(C)CC3)cc12)c1cccc(C(F)F)c1F (stereo partly drawn) [Example 119, 4-(((R)-1-(3-(difluoromethyl)-2-fluorophenyl)ethyl)amino)-6-(1-methylcyclopropyl)-1-((tetrahydrofuran-3-yl)amino)pyrido[3,4-d]pyridazin-7(6H)-one formate] | 4.3 | 59.1 |
| CC1CN(c2nnc(N[C@H](C)c3cccc(C(F)F)c3F)c3cn(C4(C)CC4)c(=O)cc23)C1 [Example 130, (R)-4-((1-(3-(difluoromethyl)-2-fluorophenyl)ethyl)amino)-1-(3-methylazetidin-1-yl)-6-(1-methylcyclopropyl) pyrido[3,4-d]pyridazin-7(6H)-one] | 3.4 | 47.8 |
| C[C@@H](Nc1nnc(N2CCCC2)c2cc(=O)n(C3(C)CC3)cc12)c1cccc(C(F)F)c1F [Example 5, (R)-4-((1-(3-(difluoromethyl)-2-fluorophenyl)ethyl)amino)-6-(1-methylcyclopropyl)-1-(pyrrolidin-1-yl)pyrido[3,4-d]pyridazin-7(6H)-one] | 4.7 | 50.1 |
